Read-outs that look alike come from different tables or passages of the source.
Experiments:
ALK2 (aa 147-end) = ALK2 (aa 147-end) (Homo sapiens (Human), UniProt Q04771); test: ALK2 HTRF Assay; format: biochemical
Method: The enzymatic assays were conducted in white 384-well polystyrene plates in a final volume of 8 μL. The inhibitors were serially diluted in DMSO and added to the plate wells prior to addition of the other reaction components. The assays were carried out at 25° C. in the assay buffer (50 mM HEPES, pH 7.1, 10% Glycerol, 0.01% Brij50, 10 mM MgCl2, 1 mM EGTA, 5 mM DTT, and 0.01% BSA), containing 50 nM LANCE Ultra ULight™-DNA Topoisomerase 2-alpha peptide (Perkin Elmer TRF0130), and 3 uM, 100 uM or 1 mM ATP (as specified). […] The reaction was read on a PHERAstar FS plate reader (BMG Labtech). IC50 determination was performed by fitting percent control activity versus the log of the inhibitor concentration using the IDBS XLFit and GraphPad Prism 5.0 software.

FGFR1 (UP) = FGFR1 (UP) (Homo sapiens (Human), UniProt P11362); test: FGFR Enzymatic Assay, FGFR1 un-phosphorylated
FGFR3 (UP) = FGFR3 (UP) (Homo sapiens (Human), UniProt P22607); test: FGFR Enzymatic Assay, FGFR3 un-phosphorylated
FGFR2 (UP) = FGFR2 (UP) (Homo sapiens (Human), UniProt P21802); test: FGFR Enzymatic Assay, FGFR2 un-phosphorylated
ALK2 = ALK2 (Homo sapiens (Human), UniProt Q04771); test: ALK2 Cellular Assay (phospho SMAD1 HTRF, BMP-7 stimulated HeLa cells); format: cell-based; conditions: HeLa cells, 200 ng/ml BMP-7, Phospho SMAD1 (S463/S465) HTRF; read-out: ALK2 Cellular Assay PSMAD
Method: HeLa cells were cultured in MEM media with 10% FBS. […] HeLa cells were plated in 96 well flat bottomed plate at 50,000 cells per well and incubated overnight. Next day, media was removed and 50 μL of fresh complete media was added. 5 μL compound was added to cells (3 μM final concentration at highest) and incubated for 60 min at 37° C. 200 ng/ml BMP-7 was added and incubated for 30 min at 37° C. After incubation, the media was removed, washed 2×PBS, and proceeded with HTRF kit according to Cisbio HTRF kit instructions for measuring the Phospho SMAD1 (S463/S465). Finally, both the donor and acceptor were added into 384 well plates and incubated at room temperature overnight and the HTRF signal was measured via Pherastar the next day.

RT112 cells = test: Luminescent Viability Assay (LVA, FGFR3); format: cell-based; conditions: Homo sapiens, RT-112, 72 h, 3 days, CellTiter-Glo
Method: RT112 cells were purchased from ATCC (Manassas, Va.) and maintained in RPMI, 10% FBS (Gibco/Life Technologies). To measure the effect of test compounds on the viability of cells, the cells were plated with RPMI 10% FBS (5×10^3 cells/well/in 50 μL) into black 96-well Greiner polystyrene in the presence or absence of 50 μl of a concentration range of test compounds. After 3 days, 100 μl of CellTiter-Glo Reagent (Promega) was added. Luminescence was read with a TopCount (PerkinElmer). IC50 determination was performed by fitting the curve of percent inhibition versus the log of the inhibitor concentration using the GraphPad Prism 5.0 software.

FGFR2 (P) = FGFR2 (P) (Homo sapiens (Human), UniProt P21802); test: FGFR Enzymatic Assay, FGFR2 phosphorylated; conditions: phosphorylated enzyme, ATP near or below Km
[1] = read-out: ALK2 3 μM IC50, 3 uM ATP
[2] = read-out: ALK2 1 mM IC50, 1 mM ATP
[3] = read-out: ALK2 100 μM IC50, 100 uM ATP
[4] = read-out: FGFR1 (UP) IC50, un-phosphorylated enzyme, ATP near or below Km
[5] = read-out: FGFR3 (UP) IC50, un-phosphorylated enzyme, ATP near or below Km

Sequence of FGFR2 (UP) (P21802 22-821): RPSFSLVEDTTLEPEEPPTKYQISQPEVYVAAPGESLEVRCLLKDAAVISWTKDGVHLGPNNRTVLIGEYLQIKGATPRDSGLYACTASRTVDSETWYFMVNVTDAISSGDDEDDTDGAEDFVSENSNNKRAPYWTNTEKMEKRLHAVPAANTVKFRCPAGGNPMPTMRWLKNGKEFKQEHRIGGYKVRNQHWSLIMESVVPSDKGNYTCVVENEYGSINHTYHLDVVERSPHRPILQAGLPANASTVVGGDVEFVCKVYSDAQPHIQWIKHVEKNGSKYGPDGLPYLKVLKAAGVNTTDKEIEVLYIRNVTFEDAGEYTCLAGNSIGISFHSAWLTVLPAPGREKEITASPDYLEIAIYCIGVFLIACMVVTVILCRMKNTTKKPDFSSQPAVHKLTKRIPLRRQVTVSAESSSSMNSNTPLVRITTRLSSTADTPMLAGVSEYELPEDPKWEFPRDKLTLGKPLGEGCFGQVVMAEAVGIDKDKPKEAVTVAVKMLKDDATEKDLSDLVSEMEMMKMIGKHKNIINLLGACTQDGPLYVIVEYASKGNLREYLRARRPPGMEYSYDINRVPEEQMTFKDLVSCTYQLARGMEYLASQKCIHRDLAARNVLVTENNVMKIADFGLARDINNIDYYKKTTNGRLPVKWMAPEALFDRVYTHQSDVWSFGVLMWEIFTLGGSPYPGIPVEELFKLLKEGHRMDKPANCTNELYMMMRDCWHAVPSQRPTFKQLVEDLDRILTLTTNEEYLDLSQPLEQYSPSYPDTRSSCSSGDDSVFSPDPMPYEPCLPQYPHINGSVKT
Sequence of FGFR2 (P) (P21802 22-821): as above
Sequence of FGFR3 (UP) (P22607 23-806): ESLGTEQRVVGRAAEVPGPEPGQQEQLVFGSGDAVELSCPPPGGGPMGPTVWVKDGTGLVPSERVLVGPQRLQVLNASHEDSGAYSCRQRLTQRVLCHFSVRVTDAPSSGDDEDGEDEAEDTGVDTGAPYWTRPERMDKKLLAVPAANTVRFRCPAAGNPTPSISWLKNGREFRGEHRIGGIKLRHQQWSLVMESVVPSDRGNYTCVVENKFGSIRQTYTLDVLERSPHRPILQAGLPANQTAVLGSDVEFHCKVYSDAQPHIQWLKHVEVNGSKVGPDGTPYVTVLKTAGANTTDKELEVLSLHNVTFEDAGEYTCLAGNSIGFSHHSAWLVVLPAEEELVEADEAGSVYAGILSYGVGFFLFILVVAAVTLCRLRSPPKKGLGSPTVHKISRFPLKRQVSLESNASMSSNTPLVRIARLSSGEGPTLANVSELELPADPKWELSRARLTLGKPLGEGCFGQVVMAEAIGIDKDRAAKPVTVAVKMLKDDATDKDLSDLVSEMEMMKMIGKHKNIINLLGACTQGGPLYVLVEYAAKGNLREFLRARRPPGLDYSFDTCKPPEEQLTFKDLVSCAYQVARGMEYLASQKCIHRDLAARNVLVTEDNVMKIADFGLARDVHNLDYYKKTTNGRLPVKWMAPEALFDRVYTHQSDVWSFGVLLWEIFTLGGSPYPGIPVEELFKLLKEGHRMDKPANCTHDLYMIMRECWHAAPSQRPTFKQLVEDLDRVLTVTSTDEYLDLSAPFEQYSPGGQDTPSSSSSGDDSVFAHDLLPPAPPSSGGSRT
Sequence of FGFR1 (UP) (P11362 22-822): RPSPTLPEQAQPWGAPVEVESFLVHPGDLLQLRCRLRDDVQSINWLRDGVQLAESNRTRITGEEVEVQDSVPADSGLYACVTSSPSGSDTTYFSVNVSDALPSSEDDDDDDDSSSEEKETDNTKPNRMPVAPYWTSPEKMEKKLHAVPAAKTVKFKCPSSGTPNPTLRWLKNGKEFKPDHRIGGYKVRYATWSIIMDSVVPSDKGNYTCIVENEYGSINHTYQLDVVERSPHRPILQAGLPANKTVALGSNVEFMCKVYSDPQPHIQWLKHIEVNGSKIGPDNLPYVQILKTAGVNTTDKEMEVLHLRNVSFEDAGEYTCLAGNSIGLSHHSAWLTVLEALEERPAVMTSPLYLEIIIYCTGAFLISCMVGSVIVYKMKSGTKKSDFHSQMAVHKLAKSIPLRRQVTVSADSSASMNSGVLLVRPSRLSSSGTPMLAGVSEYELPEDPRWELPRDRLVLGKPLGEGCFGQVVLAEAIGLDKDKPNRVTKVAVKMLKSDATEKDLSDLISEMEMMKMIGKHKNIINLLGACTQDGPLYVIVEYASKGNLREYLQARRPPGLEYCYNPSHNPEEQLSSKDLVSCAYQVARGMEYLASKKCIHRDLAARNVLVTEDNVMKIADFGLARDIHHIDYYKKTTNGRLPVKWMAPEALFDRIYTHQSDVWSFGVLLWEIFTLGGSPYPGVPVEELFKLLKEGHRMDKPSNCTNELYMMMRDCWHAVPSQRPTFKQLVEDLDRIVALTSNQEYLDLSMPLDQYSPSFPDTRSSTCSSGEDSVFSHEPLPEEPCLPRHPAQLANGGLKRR
Sequence of ALK2 (aa 147-end) (Q04771 147-509): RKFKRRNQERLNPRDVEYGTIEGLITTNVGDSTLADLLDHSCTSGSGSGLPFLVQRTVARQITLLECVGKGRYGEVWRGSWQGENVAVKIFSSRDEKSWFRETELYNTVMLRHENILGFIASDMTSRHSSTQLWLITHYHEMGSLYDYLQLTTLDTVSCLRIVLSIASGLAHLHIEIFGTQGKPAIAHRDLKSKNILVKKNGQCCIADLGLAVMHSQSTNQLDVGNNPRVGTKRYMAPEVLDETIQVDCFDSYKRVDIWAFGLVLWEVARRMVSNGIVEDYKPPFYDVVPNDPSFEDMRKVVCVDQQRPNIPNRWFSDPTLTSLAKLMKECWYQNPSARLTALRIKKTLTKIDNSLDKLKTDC
Sequence of ALK2 (Q04771 21-509): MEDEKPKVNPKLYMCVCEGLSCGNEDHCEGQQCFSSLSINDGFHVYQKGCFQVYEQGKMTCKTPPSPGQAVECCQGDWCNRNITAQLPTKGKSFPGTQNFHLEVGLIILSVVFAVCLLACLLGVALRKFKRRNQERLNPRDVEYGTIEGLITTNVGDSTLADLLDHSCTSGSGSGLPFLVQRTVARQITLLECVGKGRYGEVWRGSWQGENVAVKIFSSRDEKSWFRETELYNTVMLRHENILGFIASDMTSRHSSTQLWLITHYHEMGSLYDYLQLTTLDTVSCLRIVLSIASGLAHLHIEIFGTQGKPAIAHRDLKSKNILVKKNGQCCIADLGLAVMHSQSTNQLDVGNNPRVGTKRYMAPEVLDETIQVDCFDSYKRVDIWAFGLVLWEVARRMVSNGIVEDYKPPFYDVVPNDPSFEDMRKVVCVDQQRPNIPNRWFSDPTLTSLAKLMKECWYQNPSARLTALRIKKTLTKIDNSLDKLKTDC

## CNC(=O)c1ccc(-c2n[nH]c3cnc(N4[C@H](C)CN(C(=O)OC)C[C@@H]4C)nc23)cc1 [Example 26, Methyl (3R,5S)-3,5-dimethyl-4-(3-(4-(methylcarbamoyl)phenyl)-1H-pyrazolo[4,3-d]pyrimidin-5-yl)piperazine-1-carboxylate]
ALK2 (aa 147-end); [1]
  IC50: < 100 nM
ALK2 (aa 147-end); [2]
  IC50: > 2000 nM
FGFR1 (UP)
  IC50: 500 to 2000 nM
FGFR3 (UP)
  IC50: 100 to 500 nM
FGFR2 (UP)
  IC50: 100 to 500 nM

## COC(=O)N1C[C@@H](C)N(c2ncc3[nH]nc(-c4ccc(C5CCN(CCO)C5)cc4)c3n2)[C@@H](C)C1 (stereo partly drawn) [Example 28, Methyl (3R,5S)-4-(3-(4-(1-(2-hydroxyethyl)pyrrolidin-3-yl)phenyl)-1H-pyrazolo[4,3-d]pyrimidin-5-yl)-3,5-dimethylpiperazine-1-carboxylate]
ALK2 (aa 147-end); [1]
  IC50: < 100 nM
ALK2 (aa 147-end); [3]
  IC50: < 100 nM
FGFR1 (UP)
  IC50: 500 to 2000 nM
FGFR2 (UP)
  IC50: 100 to 500 nM
ALK2
  IC50: < 100 nM

## COC(=O)N1C[C@@H](C)N(c2ncc3[nH]nc(-c4ccc(N5CCN(C(C)CO)CC5)cc4)c3n2)[C@@H](C)C1 (stereo partly drawn) [Example 29, Methyl (3R,5S)-4-(3-(4-(4-(1-hydroxypropan-2-yl)piperazin-1-yl)phenyl)-1H-pyrazolo[4,3-d]pyrimidin-5-yl)-3,5-dimethylpiperazine-1-carboxylate]
ALK2 (aa 147-end); [1]
  IC50: < 100 nM
ALK2 (aa 147-end); [3]
  IC50: < 100 nM
FGFR2 (UP)
  IC50: 500 to 2000 nM
ALK2
  IC50: < 100 nM

## COC(=O)N1C[C@@H](C)N(c2ncc3[nH]nc(-c4ccc(N5CCN(C6CCOCC6)CC5)cc4)c3n2)[C@@H](C)C1 [Example 30, Methyl (3R,5S)-3,5-dimethyl-4-(3-(4-(4-(tetrahydro-2H-pyran-4-yl)piperazin-1-yl)phenyl)-1H-pyrazolo[4,3-d]pyrimidin-5-yl)piperazine-1-carboxylate]
ALK2 (aa 147-end); [1]
  IC50: < 100 nM
ALK2 (aa 147-end); [3]
  IC50: < 100 nM
FGFR2 (UP)
  IC50: 100 to 500 nM
ALK2
  IC50: 100 to 500 nM

## COC(=O)N1C[C@@H](C)N(c2ncc3[nH]nc(-c4ccc(N5CCN(C(C)(C)C(=O)O)CC5)cc4)c3n2)[C@@H](C)C1 [Example 31, 2-(4-(4-(5-((2R,6S)-4-(Methoxycarbonyl)-2,6-dimethylpiperazin-1-yl)-1H-pyrazolo[4,3-d]pyrimidin-3-yl)phenyl)piperazin-1-yl)-2-methylpropanoic acid]
ALK2 (aa 147-end); [1]
  IC50: < 100 nM
ALK2 (aa 147-end); [3]
  IC50: < 100 nM
FGFR2 (UP)
  IC50: 100 to 500 nM
ALK2
  IC50: < 100 nM

## COC(=O)N1C[C@@H](C)N(c2ncc3[nH]nc(-c4ccc(N5CCC(O)CC5)cc4)c3n2)[C@@H](C)C1 [Example 34, Methyl (3R,5S)-4-(3-(4-(4-hydroxypiperidin-1-yl)phenyl)-1H-pyrazolo[4,3-d]pyrimidin-5-yl)-3,5-dimethylpiperazine-1-carboxylate]
ALK2 (aa 147-end); ALK2 3 μM IC50, 3 uM ATP
  IC50: 100 to 500 nM
ALK2 (aa 147-end); [2]
  IC50: > 2000 nM
FGFR1 (UP); [4]
  IC50: > 2000 nM
FGFR2 (UP)
  IC50: 500 to 2000 nM
ALK2
  IC50: 500 to 2000 nM

## Cn1cc(-c2n[nH]c3cnc(N4CCc5ncccc5C4)nc23)cn1 [Example 40, 6-(3-(1-Methyl-1H-pyrazol-4-yl)-1H-pyrazolo[4,3-d]pyrimidin-5-yl)-5,6,7,8-tetrahydro-1,6-naphthyridine]
ALK2 (aa 147-end); ALK2 3 μM IC50, 3 uM ATP
  IC50: 500 to 2000 nM
ALK2 (aa 147-end); ALK2 100 μM IC50, 100 uM ATP
  IC50: 500 to 2000 nM
FGFR1 (UP)
  IC50: 500 to 2000 nM
RT112 cells
  IC50: 500 to 2000 nM
FGFR3 (UP); [5]
  IC50: < 100 nM
FGFR2 (P); FGFR2 (P) IC50 (nM)
  IC50: 100 to 500 nM

## Cn1cc(-c2n[nH]c3cnc(N4CCn5cnc(C(F)(F)F)c5C4)nc23)cn1 [Example 41, 3-(1-Methyl-1H-pyrazol-4-yl)-5-(1-(trifluoromethyl)-5,6-dihydroimidazo[1,5-a]pyrazin-7(8H)-yl)-1H-pyrazolo[4,3-d]pyrimidine]
ALK2 (aa 147-end); ALK2 3 μM IC50, 3 uM ATP
  IC50: 500 to 2000 nM
ALK2 (aa 147-end); ALK2 100 μM IC50, 100 uM ATP
  IC50: 500 to 2000 nM
FGFR1 (UP)
  IC50: 100 to 500 nM
RT112 cells
  IC50: 100 to 500 nM
FGFR3 (UP); [5]
  IC50: < 100 nM
FGFR2 (P); FGFR2 (P) IC50 (nM)
  IC50: 100 to 500 nM

## Cn1cc(-c2n[nH]c3cnc(N4CCc5cn[nH]c5C4)nc23)cn1 [Example 44, 3-(1-Methyl-1H-pyrazol-4-yl)-5-(1,4,5,7-tetrahydro-6H-pyrazolo[3,4-c]pyridin-6-yl)-1H-pyrazolo[4,3-d]pyrimidine]
ALK2 (aa 147-end); ALK2 3 μM IC50, 3 uM ATP
  IC50: 500 to 2000 nM
ALK2 (aa 147-end); ALK2 100 μM IC50, 100 uM ATP
  IC50: 500 to 2000 nM
FGFR1 (UP)
  IC50: 100 to 500 nM
RT112 cells
  IC50: 500 to 2000 nM
FGFR3 (UP); [5]
  IC50: < 100 nM
FGFR2 (P); read-out: FGFR2 (P) IC50
  IC50: < 100 nM

## Cn1cc(-c2n[nH]c3cnc(N4C5CCC4C(=O)N(CCF)C5)nc23)cn1 (stereo not drawn) [Example 51, 3-(2-Fluoroethyl)-8-(3-(1-methyl-1H-pyrazol-4-yl)-1H-pyrazolo[4,3-d]pyrimidin-5-yl)-3,8-diazabicyclo[3.2.1]octan-2-one]
ALK2 (aa 147-end); ALK2 3 μM IC50, 3 uM ATP
  IC50: 100 to 500 nM
ALK2 (aa 147-end); ALK2 100 μM IC50, 100 uM ATP
  IC50: 500 to 2000 nM
FGFR1 (UP)
  IC50: 100 to 500 nM
RT112 cells
  IC50: 500 to 2000 nM
FGFR3 (UP); [5]
  IC50: < 100 nM
FGFR2 (P); FGFR2 (P) IC50 (nM)
  IC50: 100 to 500 nM

## CC(C)C(=O)N1CCC(n2cc(-c3n[nH]c4cnc(N5C6CCC5C(=O)N(C)C6)nc34)cn2)CC1 (stereo not drawn) [Example 57, 8-(3-(1-(1-Isobutyrylpiperidin-4-yl)-1H-pyrazol-4-yl)-1H-pyrazolo[4,3-d]pyrimidin-5-yl)-3-methyl-3,8-diazabicyclo[3.2.1]octan-2-one]
ALK2 (aa 147-end); ALK2 3 μM IC50, 3 uM ATP
  IC50: 500 to 2000 nM
ALK2 (aa 147-end); ALK2 100 μM IC50, 100 uM ATP
  IC50: 500 to 2000 nM
FGFR1 (UP)
  IC50: 100 to 500 nM
RT112 cells
  IC50: 500 to 2000 nM
FGFR3 (UP); [5]
  IC50: < 100 nM
FGFR2 (P); read-out: FGFR2 (P) IC50
  IC50: < 100 nM

## CN1CC2CCC(C1=O)N2c1ncc2[nH]nc(-c3cnn(Cc4ccncc4)c3)c2n1 (stereo not drawn) [Example 59, 3-Methyl-8-(3-(1-(pyridin-4-ylmethyl)-1H-pyrazol-4-yl)-1H-pyrazolo[4,3-d]pyrimidin-5-yl)-3,8-diazabicyclo[3.2.1]octan-2-one]
ALK2 (aa 147-end); ALK2 3 μM IC50, 3 uM ATP
  IC50: 500 to 2000 nM
ALK2 (aa 147-end); ALK2 100 μM IC50, 100 uM ATP
  IC50: 500 to 2000 nM
FGFR1 (UP)
  IC50: 100 to 500 nM
RT112 cells
  IC50: 500 to 2000 nM
FGFR3 (UP); [5]
  IC50: < 100 nM
FGFR2 (P); read-out: FGFR2 (P) IC50
  IC50: < 100 nM

## CN1CCN(c2ccc(-c3n[nH]c4cnc(N5C6CCC5C(=O)N(C)C6)nc34)cn2)CC1 (stereo not drawn) [Example 60, 3-Methyl-8-(3-(6-(4-methylpiperazin-1-yl)pyridin-3-yl)-1H-pyrazolo[4,3-d]pyrimidin-5-yl)-3,8-diazabicyclo[3.2.1]octan-2-one]
ALK2 (aa 147-end); ALK2 100 μM IC50, 100 uM ATP
  IC50: 500 to 2000 nM
ALK2 (aa 147-end); [1]
  IC50: < 100 nM
FGFR1 (UP); [4]
  IC50: < 100 nM
RT112 cells
  IC50: 100 to 500 nM
FGFR3 (UP); [5]
  IC50: < 100 nM
FGFR2 (P); read-out: FGFR2 (P) IC50
  IC50: < 100 nM

## CN1CC2CCC(C1=O)N2c1ncc2[nH]nc(-c3cnn(-c4ccc5nccn5c4)c3)c2n1 (stereo not drawn) [Example 75, 8-(3-(1-(Imidazo[1,2-a]pyridin-6-yl)-1H-pyrazol-4-yl)-1H-pyrazolo[4,3-d]pyrimidin-5-yl)-3-methyl-3,8-diazabicyclo[3.2.1]octan-2-one]
ALK2 (aa 147-end); ALK2 3 μM IC50, 3 uM ATP
  IC50: 500 to 2000 nM
ALK2 (aa 147-end); ALK2 100 μM IC50, 100 uM ATP
  IC50: 500 to 2000 nM
FGFR1 (UP); [4]
  IC50: < 100 nM
RT112 cells
  IC50: 500 to 2000 nM
FGFR3 (UP); [5]
  IC50: < 100 nM
FGFR2 (P); read-out: FGFR2 (P) IC50
  IC50: < 100 nM

From patent US11111247B2, “Pyrazolopyrimidine compounds and uses thereof” (Incyte Corporation, priority 2018, dated 2021)
